{"source": "patent US9687458B2", "about": "“Trans-clomiphene for use in cancer therapy” (REPROS THERAPEUTICS INC., priority 2012, dated 2017)", "key": {"circulating IGF-1": {"system": "circulating IGF-1", "details": "Campbell et al., J. Clin. Pathol: Mol Pathol. 54:307 (2001); cited from earlier work"}, "[1]": {"system": "corticotropin, prolactin or thyroid stimulating hormone", "assay": "Studies on the effects of enclomiphine on men: other hormones secreted by the pituitary", "format": "in vivo, human", "text": "The present invention provides methods for reducing IGF-1 levels in a subject in need of such treatment. […] Clomiphene is thought to exert its effects at the level of the hypothamus-pituitary axis by specifically stimulating secretion of the gonadotropic hormones LH and FSH. Neither of these gonadotropic hormones is known to play a general role in establishment or proliferation of cancer. Studies on the effects of enclomiphine on men found no changes in other hormones secreted by the pituitary such as corticotropin, prolactin or thyroid stimulating hormone. Growth hormone (GH), secreted by the pituitary is known to drive production of IGF-1 by the liver. Without wishing to be bound by theory it is believed that trans-clomiphene suppresses the pituitary production of GH thereby reducing the endocrine stimulated production of liver IGF-1. The activity of trans-clomiphene in reducing serum IGF-1 levels, renders the compositions useful for treating a variety of cancers having strong expression or overexpression of IGF-1 as a common underlying etiology."}, "serum IGF-1 [2]": {"system": "serum IGF-1", "assay": "Second clinical study: serum IGF-1 after three months of trans-clomiphene or placebo", "format": "in vivo, human", "details": "for Mean Change from Baseline (st dev): P<0.0001 vs placebo; for mean reduction in serum IGF-1 levels: three months", "procedure": "Another study measured serum IGF-1 levels in human males with low/low-normal testosterone following treatment with trans-clomiphene. Briefly 38 males were administered trans-clomiphene at 12.5 mg per day, 35 males were administered trans-clomiphene at 25 mg per day and 43 males were administered a placebo (control group). Serum IGF-1 levels were measured by immunoenzymometric assay as described above at baseline and following three months of treatment with trans-clomiphene or placebo for each treatment group."}, "[3]": {"system": "serum (circulating) IGF-1", "assay": "First clinical study: serum IGF-1 by immunoenzymometric assay, trans-clomiphene vs Testim over six months", "format": "in vivo, human", "procedure": "The effect of the isolated trans-clomiphene isomer on free serum IGF-1 was tested in three separate clinical studies.\nAdult male subjects with a morning total testosterone blood level of <300 ng/dl and a serum LH of <15 IU/ml who had previously undergone between 6 months and two years of topical testosterone therapy were administered either trans-clomiphene (25 mg/day via oral capsule) or a topical testosterone gel (Testim®, 50 mg applied daily) over a six month period according to the first study. Following an initial screening visit (Visit 1-V1), topical testosterone replacement therapy in the subjects was discontinued for either three weeks or three months. At the end of the washout period (Visit 2-V2), quantitative determination of baseline serum (circulating) IGF-1 measurements were made in the subjects by immunoenzymometric assay (Immunodiagnostics Systems Ltd., OCTEIA® IGF-1 kit) and treatment with either trans-clomiphene or Testim® was initiated. Follow-up measurements were taken at 3 months post initial dose (Visit 4-V4), 6 months post initial dose (Visit 5-V5) and one month after cessation of treatment (Visit 6-V6). Seven subjects completed six months of trans-clomiphene therapy and five subjects completed six months of Testim® therapy. The results are presented at FIG. 1. At baseline (V2), serum IGF-1 levels in both patient groups averaged about 140 ng/ml. […] Thus, circulating serum IGF-1 levels were reduced over 40% in subjects administered trans-clomiphene whereas exogenous testosterone had no effect on circulating serum IGF-1. Importantly, aside from low testosterone, these subjects were otherwise healthy—thus, administering trans-clomiphene provides an effective method for reducing serum levels of IGF-1 produced by the liver (i.e. growth-hormone dependent IGF-1)."}, "serum IGF-1 [4]": {"system": "serum IGF-1", "assay": "Third clinical study: IGF-1 after 6 weeks of trans-clomiphene compared to AndroGel", "format": "in vivo, human"}, "human estrogen receptor": {"target": "T1, human estrogen receptor (Homo sapiens, UniProt P03372)", "T1 sequence (P03372 1-595)": "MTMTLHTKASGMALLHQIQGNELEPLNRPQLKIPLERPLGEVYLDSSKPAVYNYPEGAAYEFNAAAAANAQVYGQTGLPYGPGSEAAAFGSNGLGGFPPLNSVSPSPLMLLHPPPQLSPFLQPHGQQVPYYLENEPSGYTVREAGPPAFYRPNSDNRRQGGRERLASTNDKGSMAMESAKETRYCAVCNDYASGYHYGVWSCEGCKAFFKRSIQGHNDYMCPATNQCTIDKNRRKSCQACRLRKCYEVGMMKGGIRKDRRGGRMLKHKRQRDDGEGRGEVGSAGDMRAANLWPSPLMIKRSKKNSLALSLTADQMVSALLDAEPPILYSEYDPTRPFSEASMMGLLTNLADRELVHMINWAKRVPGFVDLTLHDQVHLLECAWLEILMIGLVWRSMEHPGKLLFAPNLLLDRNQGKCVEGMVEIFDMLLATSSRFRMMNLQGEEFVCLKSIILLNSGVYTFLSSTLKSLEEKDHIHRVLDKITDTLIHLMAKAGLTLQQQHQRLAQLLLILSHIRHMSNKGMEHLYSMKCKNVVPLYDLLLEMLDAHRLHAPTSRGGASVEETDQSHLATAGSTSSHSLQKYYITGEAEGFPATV", "details": "Murdter et al., Hum. Mol. Genet. 21:1145 (2012); cited from earlier work"}}, "data": [{"smiles": "CCC(=C(c1ccccc1)c1ccc(OCCN(C)C)cc1)c1ccccc1", "note": "[tamoxifen, 2-[4-(1,2-diphenylbut-1-enyl)phenoxy]-N,N-dimethyl-ethanamine]", "values": [{"measurement": "change to circulating IGF-1 levels after treatment", "setting": "circulating IGF-1", "result": "no change"}]}, {"smiles": "CCN(CC)CCOc1ccc(/C(=C(/Cl)c2ccccc2)c2ccccc2)cc1", "note": "[trans-clomiphene]", "values": [{"measurement": "changes in other hormones secreted by the pituitary (corticotropin, prolactin, thyroid stimulating hormone)", "setting": "[1]", "result": "no changes"}, {"measurement": "Baseline IGF-1 (st dev)", "setting": "serum IGF-1 [2]; 12.5 mg per day group, n=38, before treatment", "result": "115.2 (35.11) μg/L"}, {"measurement": "Mean Change from Baseline (st dev)", "setting": "serum IGF-1 [2]; 12.5 mg per day, n=38, month 3", "result": "−36.8 (22.3) μg/L"}, {"measurement": "Month 3 IGF-1 (st dev)", "setting": "serum IGF-1 [2]; 12.5 mg per day, n=38, three months of treatment", "result": "77.3 (30.8) μg/L"}, {"measurement": "mean reduction in serum IGF-1 levels", "setting": "serum IGF-1 [2]; 12.5 mg per day", "result": "~32", "unit": "%"}, {"measurement": "Baseline IGF-1 (st dev)", "setting": "serum IGF-1 [2]; 25 mg per day group, n=35, before treatment", "result": "107.2 (39.4) μg/L"}, {"measurement": "Mean Change from Baseline (st dev)", "setting": "serum IGF-1 [2]; 25 mg per day, n=35, month 3", "result": "−38.3 (29.5) μg/L"}, {"measurement": "Month 3 IGF-1 (st dev)", "setting": "serum IGF-1 [2]; 25 mg per day, n=35, three months of treatment", "result": "70.4 (38.6) μg/L"}, {"measurement": "mean reduction in serum IGF-1 levels", "setting": "serum IGF-1 [2]; 25 mg per day", "result": 36, "unit": "%"}, {"measurement": "serum IGF-1 level at baseline (V2)", "setting": "[3]; group average at end of washout, before treatment, hypogonadal adult males", "result": "about 140 ng/ml"}, {"measurement": "serum IGF-1 level after 3 months of treatment (V4)", "setting": "[3]; trans-clomiphene 25 mg/day oral capsule, n=7", "result": "below 80 ng/ml"}, {"measurement": "serum IGF-1 after 6 months of treatment (V5)", "setting": "[3]; trans-clomiphene 25 mg/day oral or Testim 50 mg daily topical", "result": "remained depressed"}, {"measurement": "reduction of circulating serum IGF-1", "setting": "[3]; trans-clomiphene 25 mg/day, vs baseline", "result": "over 40%"}, {"measurement": "IGF-1 - Naïve men", "setting": "serum IGF-1 [4]; 6.25 mg daily group, n=12, baseline", "result": "101 ± 43", "unit": "µg/L"}, {"measurement": "IGF-1 - Treated men", "setting": "serum IGF-1 [4]; 6.25 mg daily, n=12, after 6 weeks, p = 0.008 compared to AndroGel (MWW)", "result": "54 ± 30", "unit": "µg/L"}, {"measurement": "IGF-1 - Naïve men", "setting": "serum IGF-1 [4]; 12.5 mg daily group, n=10, baseline", "result": "94 ± 47", "unit": "µg/L"}, {"measurement": "IGF-1 - Treated men", "setting": "serum IGF-1 [4]; 12.5 mg daily, n=10, after 6 weeks, p = 0.0035 compared to AndroGel (MWW)", "result": "50 ± 24", "unit": "µg/L"}, {"measurement": "IGF-1 - Naïve men", "setting": "serum IGF-1 [4]; 25 mg daily group, n=12, baseline", "result": "96 ± 45", "unit": "µg/L"}, {"measurement": "IGF-1 - Treated men", "setting": "serum IGF-1 [4]; 25 mg daily, n=12, after 6 weeks, p = 0.008 compared to AndroGel (MWW)", "result": "62 ± 42", "unit": "µg/L"}]}, {"smiles": "CCN(CC)CCOc1ccc(C(=C(Cl)c2ccccc2)c2ccc(O)cc2)cc1", "note": "[4-hydroxy-trans-clomiphene]", "values": [{"measurement": "ligand strength for the human estrogen receptor", "setting": "human estrogen receptor", "result": "strong ligands"}]}]}
